Patent US11976083B2, “Inhibitors of peptidylarginine deiminases” (Gilead Sciences, Inc., priority 2020, dated 2024)

The molecules below were run against T1, human PAD4 (Homo sapiens, UniProt Q9UM07) (assay: In vitro PAD4 BAEE biochemical assay). Conditions: BAEE substrate 3 mM, 5 nM PAD4, 2 mM calcium chloride; geometric mean of multiple experiments.
T1 construct: human PAD4 (NM_012387), A2-P663, was PCR amplified; His-SUMO (N, cleaved yes); made in house; host or cells: E. coli BL21(DE3)
T1 sequence (Q9UM07 2-663): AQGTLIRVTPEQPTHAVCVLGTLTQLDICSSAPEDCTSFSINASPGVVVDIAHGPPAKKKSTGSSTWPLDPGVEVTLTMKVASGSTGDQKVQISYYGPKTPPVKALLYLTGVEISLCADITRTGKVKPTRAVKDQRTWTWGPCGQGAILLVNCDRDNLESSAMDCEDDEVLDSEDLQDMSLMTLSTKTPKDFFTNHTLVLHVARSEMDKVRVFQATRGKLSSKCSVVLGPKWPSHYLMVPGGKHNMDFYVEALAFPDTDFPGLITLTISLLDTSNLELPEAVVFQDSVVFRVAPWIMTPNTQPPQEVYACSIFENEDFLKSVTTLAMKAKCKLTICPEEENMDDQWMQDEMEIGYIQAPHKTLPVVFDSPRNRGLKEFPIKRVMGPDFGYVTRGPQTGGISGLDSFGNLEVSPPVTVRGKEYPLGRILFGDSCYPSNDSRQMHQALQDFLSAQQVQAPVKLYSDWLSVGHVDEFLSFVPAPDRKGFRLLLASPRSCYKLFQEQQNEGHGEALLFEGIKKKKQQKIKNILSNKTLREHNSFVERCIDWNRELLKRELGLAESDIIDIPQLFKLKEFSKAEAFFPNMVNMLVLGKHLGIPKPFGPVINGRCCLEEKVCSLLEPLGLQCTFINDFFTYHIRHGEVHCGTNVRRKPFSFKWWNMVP
How it was run: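 PAD4 5 nM, CaCl2 2 mM, BAEE 3 mM final; 50 mM MOPS pH 7.6, 50 mM NaCl, 0.05% Tween-20, 2 mM DTT. Cpd + enzyme 30 min 25 °C; substrate 2 h 25 °C; EDTA stop; OPA detection 1 h. IC50 4-parameter fit.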
`COc1cc(C(=O)N2CC[C@@H](OC(F)F)[C@@H](N)C2)cc2nc(-c3cc4ccc5nc4n3CCCCCCC(C)(C)C(=O)N[C@@H]5C)n(C)c12` [Example 297, (11~{R})-17-[5-[(3~{S},4~{R})-3-amino-4-(difluoromethoxy)piperidine-1-carbonyl]-7-methoxy-1-methyl-benzimidazol-2-yl]-8,8,11-trimethyl-1,10,19-triazatricyclo[10.5.2.0^{15,18}]nonadeca-12(19),13,15(18),16-tetraen-9-one] gave an IC50 of 129 nM. Molecule `COc1cc(C(=O)N2CCC[C@@H](N)C2)cc2nc(-c3cc4ccc5nc4n3CCOCCOCCOC5C)n(C)c12` (stereo partly shown) [Example 298, [(3~{R})-3-amino-1-piperidyl]-[7-methoxy-1-methyl-2-(11-methyl-4,7,10-trioxa-1,19-diazatricyclo[10.5.2.0^{15,18}]nonadeca-12(19),13,15(18),16-tetraen-17-yl)benzimidazol-5-yl]methanone] has an IC50 of 914 nM. `COc1cc(C(=O)N2C[C@H](N)CCN2C)cc2nc(-c3cc4ccc5nc4n3CCCCCCC(C)(C)C(=O)N[C@@H]5C)n(C)c12` [Example 299, (11~{R})-17-[5-[(5~{R})-5-amino-2-methyl-hexahydropyridazine-1-carbonyl]-7-methoxy-1-methyl-benzimidazol-2-yl]-8,8,11-trimethyl-1,10,19-triazatricyclo[10.5.2.0^{15,18}]nonadeca-12(19),13,15(18),16-tetraen-9-one] showed an IC50 of 58 nM. Work on `COc1cc(C(=O)N2CCC[C@@H](N)C2)cc2nc(-c3cc4ccc5nc4n3CCCCCCC(=O)N[C@@H]5C)c(C)n12` [Example 300, (10~{R})-16-[7-[(3~{R})-3-aminopiperidine-1-carbonyl]-5-methoxy-3-methyl-imidazo[1,2-a]pyridin-2-yl]-10-methyl-1,9,18-triazatricyclo[9.5.2.0^{14,17}]octadeca-11(18),12,14(17),15-tetraen-8-one] yielded an IC50 of 50 nM. `COc1cc(C(=O)N2CCC[C@@H](N)C2)cc2nc(-c3cc4ccc5nc4n3CCCCCCCC(=O)N[C@@H]5C)c(C)n12` [Example 301, (11~{R})-17-[7-[(3~{R})-3-aminopiperidine-1-carbonyl]-5-methoxy-3-methyl-imidazo[1,2-a]pyridin-2-yl]-11-methyl-1,10,19-triazatricyclo[10.5.2.0^{15,18}]nonadeca-12(19),13,15(18),16-tetraen-9-one] showed an IC50 of 36 nM. In the case of `COc1cc(C(=O)N2C[C@H]3CC[C@@H]2[C@@H]3N)cc2nc(-c3cc4ccc5nc4n3CCCCCCCC(=O)N[C@@H]5C)c(C)n12` [Example 302, (11~{R})-17-[7-[(1~{R},4~{R},7~{R})-7-amino-2-azabicyclo[2.2.1]heptane-2-carbonyl]-5-methoxy-3-methyl-imidazo[1,2-a]pyridin-2-yl]-11-methyl-1,10,19-triazatricyclo[10.5.2.0^{15,18}]nonadeca-12(19),13,15(18),16-tetraen-9-one], the IC50 is reported as 67 nM. With `COc1cc(C(=O)N2CCC[C@@H](N)C2)cc2nc(-c3cc4ccc5nc4n3CCC3(CC3)COCCC(=O)N[C@@H]5C)c(C)n12` [Example 303, (11~{R})-17-[7-[(3~{R})-3-aminopiperidine-1-carbonyl]-5-methoxy-3-methyl-imidazo[1,2-a]pyridin-2-yl]-11-methyl-spiro[6-oxa-1,10,19-triazatricyclo[10.5.2.0^{15,18}]nonadeca-12(19),13,15(18),16-tetraene-4,1′-cyclopropane]-9-one] the IC50 was 525 nM. In the case of `COc1cc(C(=O)N2CCC[C@@H](N)C2)cc2nc(-c3cc4ccc5nc4n3C[C@H]3C[C@H]3COCCC(=O)N[C@@H]5C)n(C)c12` [Example 304, (3~{S),5~{R},12~{R})-18-[5-[(3~{R})-3-aminopiperidine-1-carbonyl]-7-methoxy-1-methyl-benzimidazol-2-yl]-12-methyl-7-oxa-1,11,20-triazatetracyclo[11.5.2.0^{3,5}.0^{16,19}] icosa-13(20),14,16(19),17-tetraen-10-one], the IC50 is reported as 70 nM. In the case of `COc1cc(C(=O)N2CCC[C@@H](N)C2)cc2nc(-c3cc4ccc5nc4n3C[C@@H]3C[C@@H]3COCCC(=O)N[C@@H]5C)n(C)c12` [Example 305, (3~{R},5~{S},12~{R})-18-[5-[(3~{R})-3-aminopiperidine-1-carbonyl]-7-methoxy-1-methyl-benzimidazol-2-yl]-12-methyl-7-oxa-1,11,20-triazatetracyclo[11.5.2.0^{3,5).0^{16,19}] icosa-13(20),14,16(19),17-tetraen-10-one], the IC50 is reported as 65 nM. Work on `COc1cc(C(=O)N2CCC[C@@H](N)C2)cc2nc(-c3cc4ccc5nc4n3CC[C@H]3C[C@H]3COCCC(=O)N[C@@H]5C)n(C)c12` [Example 306, (4~{R},6~{R},13~{R})-19-[5-[(3~{R})-3-aminopiperidine-1-carbonyl]-7-methoxy-1-methyl-benzimidazol-2-yl]-13-methyl-8-oxa-1,12,21-triazatetracyclo[12.5.2.0^{4,6}.0^{17,20}] henicosa-14(21),15,17(20),18-tetraen-11-one] yielded an IC50 of 85 nM. For `COc1cc(C(=O)N2CCC[C@@H](N)C2)cc2nc(-c3cc4ccc5cc4n3CCCOC[C@H]3C[C@H]3C(=O)N[C@@H]5C)n(C)c12` [Example 307, (2~{R},5~{R},7~{S})-14-[5-[(3~{R})-3-aminopiperidine-1-carbonyl]-7-methoxy-1-methyl-benzimidazol-2-yl]-2-methyl-9-oxa-3,13-diazatetracyclo[11.5.2.0^{5,7}.0^{16,20}] icosa-1(19),14,16(20),17-tetraen-4-one], the IC50 was 82 nM. With `COc1cc(C(=O)N2CCC[C@@H](N)C2)cc2nc(-c3cc4ccc5nc4n3CCCOC[C@H]3C[C@H]3C(=O)N[C@@H]5C)n(C)c12` [Example 308, (2~{R},5~{R},7~{S})-14-[5-[(3~{R})-3-aminopiperidine-1-carbonyl]-7-methoxy-1-methyl-benzimidazol-2-yl]-2-methyl-9-oxa-3,13,19-triazatetracyclo[11.5.2.0^{5,7}.0^{16,20}] icosa-1(19),14,16(20),17-tetraen-4-one] the IC50 was 72 nM. `COc1cc(C(=O)N2CCC[C@@H](N)C2)cc2nc(-c3cc4ccc5nc4n3CCCOC[C@@H]3C[C@@H]3C(=O)N[C@@H]5C)n(C)c12` [Example 309, (2~{R},5~{S},7~{R})-14-[5-[(3~{R})-3-aminopiperidine-1-carbonyl]-7-methoxy-1-methyl-benzimidazol-2-yl]-2-methyl-9-oxa-3,13,19-triazatetracyclo[11.5.2.0^{5,7}.0^{16,20}] icosa-1(19),14,16(20),17-tetraen-4-one] gave an IC50 of 1380 nM. `COc1cc(C(=O)N2CCC[C@@H](N)C2)cc2nc(-c3cc4ccc5nc4n3C[C@H]3C[C@H]3COCC(C)(C)C(=O)N[C@@H]5C)n(C)c12` [Example 310, (3~{S},5~{R},12~{R})-18-[5-[(3~{R})-3-aminopiperidine-1-carbonyl]-7-methoxy-1-methyl-benzimidazol-2-yl]-9,9,12-trimethyl-7-oxa-1,11,20-triazatetracyclo[11.5.2.0^{3,5}.0^{16,19}] icosa-13(20),14,16(19),17-tetraen-10-one] gave an IC50 of 135 nM. In the case of `COc1cc(C(=O)N2CCC[C@@H](N)C2)cc2nc(-c3cc4ccc5nc4n3C[C@H]3C[C@H]3COCC3(CC3)C(=O)N[C@@H]5C)n(C)c12` [Example 311, (3~{S],5~{R},12~{R})-18-[5-[(3~{R})-3-aminopiperidine-1-carbonyl]-7-methoxy-1-methyl-benzimidazol-2-yl]-12-methyl-spiro[7-oxa-1,11,20-triazatetracyclo[11.5.2.0^{3,5}.0^{16,19}]icosa-13(20),14,16(19),17-tetraene-9,1′-cyclopropane]-10-one], the IC50 is reported as 175 nM. `COc1cc(C(=O)N2CC[C@@H](OC)[C@@H](N)C2)cc2nc(-c3cc4ccc5nc4n3C[C@H]3C[C@H]3COCCC(=O)N[C@@H]5C)n(C)c12` [Example 314, (3~{S),5~{R},12~{R})-18-[5-[(3~{S},4~{R})-3-amino-4-methoxy-piperidine-1-carbonyl]-7-methoxy-1-methyl-benzimidazol-2-yl]-12-methyl-7-oxa-1,11,20-triazatetracyclo[11.5.2.0^{3,5}.0^{16,19}] icosa-13(20),14,16(19),17-tetraen-10-one] gave an IC50 of 156 nM. `COc1cc(C(=O)N[C@H]2CNCC[C@@H]2F)cc2nc(-c3cc4ccc5nc4n3C[C@H]3C[C@H]3COCCC(=O)N[C@@H]5C)n(C)c12` [Example 315, ~{N}-[(3~{S},4~{S})-4-fluoro-3-piperidyl]-7-methoxy-1-methyl-2-[(3~{S},5~{R},12~{R})-12-methyl-10-oxo-7-oxa-1,11,20-triazatetracyclo[11.5.2.0^{3,5}.0^{16,19}]icosa-13(20),14,16(19),17-tetraen-18-yl]benzimidazole-5-carboxamide] gave an IC50 of 45 nM. For `COc1cc(C(=O)N2[C@H]3CC[C@@H]2[C@H](N)C3)cc2nc(-c3cc4ccc5nc4n3CCCCCCCC(=O)N[C@@H]5C)c(C)n12` [Example 316, (11˜{R})-17-[7-[(1˜{R},2˜{R},4˜{S})-2-amino-7-azabicyclo[2.2.1]heptane-7-carbonyl]-5-methoxy-3-methyl-imidazo[1,2-a]pyridin-2-yl]-11-methyl-1,10,19-triazatricyclo[10.5.2.0^{15,18}]nonadeca-12(19),13,15(18),16-tetraen-9-one], the IC50 was 14 nM. In the case of `COc1cc(C(=O)N2[C@H]3CC[C@@H]2[C@H](N)C3)cc2nc(-c3cc4ccc5nc4n3CCCCCCC(=O)N[C@@H]5C)c(C)n12` [Example 317, (10~{R})-16-[7-[(1~{R},2~{R},4~{S})-2-amino-7-azabicyclo[2.2.1]heptane-7-carbonyl]-5-methoxy-3-methyl-imidazo[1,2-a]pyridin-2-yl]-10-methyl-1,9,18-triazatricyclo[9.5.2.0^{14,17}]octadeca-11(18),12,14(17),15-tetraen-8-one], the IC50 is reported as 16 nM.
